PubChem BioAssay AID1259407 (Chemical Carcinogenesis Research Information System (CCRIS), 2018)
The source made the active and inactive calls. No rule for the calls is given here.

Test system: CCRIS mutagenicity, Ames/micronucleus/aberration tests
Assay: CCRIS mutagenicity studies
[1] = Test System: AMES SALMONELLA TYPHIMURIUM, Strain/Indicator: TA98, Metabolic Activation: NONE, Method: PREINCUBATION
[2] = Test System: AMES SALMONELLA TYPHIMURIUM, Strain/Indicator: TA100, Metabolic Activation: NONE, Method: PREINCUBATION
[3] = Test System: AMES SALMONELLA TYPHIMURIUM, Strain/Indicator: TA1535, Metabolic Activation: NONE, Method: PREINCUBATION
[4] = Test System: AMES SALMONELLA TYPHIMURIUM, Strain/Indicator: TA1537, Metabolic Activation: NONE, Method: PREINCUBATION

Measured: mutagenic call

CC(C#N)CCC#N (configuration not stated)
inactive: Test System: AMES SALMONELLA TYPHIMURIUM, Strain/Indicator: TA97, Metabolic Activation: HAMSTER, LIVER, S-9, AROCLOR 1254 (5, 10 OR 30%), Method: PREINCUBATION inactive; negative | Test System: AMES SALMONELLA TYPHIMURIUM, Strain/Indicator: TA97, Metabolic Activation: NONE, Method: PREINCUBATION inactive; negative | Test System: AMES SALMONELLA TYPHIMURIUM, Strain/Indicator: TA97, Metabolic Activation: RAT, LIVER, S-9, AROCLOR 1254 (5, 1O OR 30%), Method: PREINCUBATION inactive; negative | Test System: AMES SALMONELLA TYPHIMURIUM, Strain/Indicator: TA98, Metabolic Activation: HAMSTER, LIVER, S-9, AROCLOR 1254 (10%), Method: PREINCUBATION inactive; negative | [1] inactive; negative | Test System: AMES SALMONELLA TYPHIMURIUM, Strain/Indicator: TA98, Metabolic Activation: RAT, LIVER, S-9, AROCLOR 1254 (10%), Method: PREINCUBATION inactive; negative | Test System: AMES SALMONELLA TYPHIMURIUM, Strain/Indicator: TA100, Metabolic Activation: HAMSTER, LIVER, S-9, AROCLOR 1254 (10%), Method: PREINCUBATION inactive; negative | [2] inactive; negative | Test System: AMES SALMONELLA TYPHIMURIUM, Strain/Indicator: TA100, Metabolic Activation: RAT, LIVER, S-9, AROCLOR 1254 (10%), Method: PREINCUBATION inactive; negative | Test System: AMES SALMONELLA TYPHIMURIUM, Strain/Indicator: TA1535, Metabolic Activation: HAMSTER, LIVER, S-9, AROCLOR 1254 (10%), Method: PREINCUBATION inactive; negative | [3] inactive; negative | Test System: AMES SALMONELLA TYPHIMURIUM, Strain/Indicator: TA1535, Metabolic Activation: RAT, LIVER, S-9, AROCLOR 1254 (10%), Method: PREINCUBATION inactive; negative | Test System: AMES SALMONELLA TYPHIMURIUM, Strain/Indicator: TA1537, Metabolic Activation: HAMSTER, LIVER, S-9, AROCLOR 1254 (10 OR 30%), Method: PREINCUBATION inactive; negative | [4] inactive; negative | Test System: AMES SALMONELLA TYPHIMURIUM, Strain/Indicator: TA1537, Metabolic Activation: RAT, LIVER, S-9, AROCLOR 1254 (10 OR 30%), Method: PREINCUBATION inactive; negative

Cc1ccccn1
inactive: Test System: AMES SALMONELLA TYPHIMURIUM, Strain/Indicator: TA97, Metabolic Activation: NONE, Method: STANDARD PLATE inactive; negative | Test System: AMES SALMONELLA TYPHIMURIUM, Strain/Indicator: TA97, Metabolic Activation: RAT, LIVER, S-9, AROCLOR 1254, Method: STANDARD PLATE inactive; negative | [1] inactive; negative | Test System: AMES SALMONELLA TYPHIMURIUM, Strain/Indicator: TA98, Metabolic Activation: NONE, Method: STANDARD PLATE inactive; negative | Test System: AMES SALMONELLA TYPHIMURIUM, Strain/Indicator: TA98, Metabolic Activation: RAT LIVER S-9, PHENOBARBITAL AND BETA-NAPHTHOFLAVONE, Method: PREINCUBATION inactive; negative | Test System: AMES SALMONELLA TYPHIMURIUM, Strain/Indicator: TA98, Metabolic Activation: RAT, LIVER, S-9, AROCLOR 1254, Method: PREINCUBATION inactive; negative | Test System: AMES SALMONELLA TYPHIMURIUM, Strain/Indicator: TA98, Metabolic Activation: RAT, LIVER, S-9, AROCLOR 1254, Method: STANDARD PLATE inactive; negative | [2] inactive; negative | Test System: AMES SALMONELLA TYPHIMURIUM, Strain/Indicator: TA100, Metabolic Activation: NONE, Method: STANDARD PLATE inactive; negative | Test System: AMES SALMONELLA TYPHIMURIUM, Strain/Indicator: TA100, Metabolic Activation: RAT LIVER S-9, PHENOBARBITAL AND BETA-NAPHTHOFLAVONE, Method: PREINCUBATION inactive; negative | Test System: AMES SALMONELLA TYPHIMURIUM, Strain/Indicator: TA100, Metabolic Activation: RAT, LIVER, S-9, AROCLOR 1254, Method: PREINCUBATION inactive; negative | Test System: AMES SALMONELLA TYPHIMURIUM, Strain/Indicator: TA100, Metabolic Activation: RAT, LIVER, S-9, AROCLOR 1254, Method: STANDARD PLATE inactive; negative | Test System: AMES SALMONELLA TYPHIMURIUM, Strain/Indicator: TA102, Metabolic Activation: NONE, Method: PREINCUBATION inactive; negative | Test System: AMES SALMONELLA TYPHIMURIUM, Strain/Indicator: TA102, Metabolic Activation: NONE, Method: STANDARD PLATE inactive; negative | Test System: AMES SALMONELLA TYPHIMURIUM, Strain/Indicator: TA102, Metabolic Activation: RAT LIVER S-9, PHENOBARBITAL AND BETA-NAPHTHOFLAVONE, Method: PREINCUBATION inactive; negative | Test System: AMES SALMONELLA TYPHIMURIUM, Strain/Indicator: TA102, Metabolic Activation: RAT, LIVER, S-9, AROCLOR 1254, Method: PREINCUBATION inactive; negative | Test System: AMES SALMONELLA TYPHIMURIUM, Strain/Indicator: TA102, Metabolic Activation: RAT, LIVER, S-9, AROCLOR 1254, Method: STANDARD PLATE inactive; negative | Test System: AMES SALMONELLA TYPHIMURIUM, Strain/Indicator: TA104, Metabolic Activation: NONE, Method: PREINCUBATION inactive; negative | Test System: AMES SALMONELLA TYPHIMURIUM, Strain/Indicator: TA104, Metabolic Activation: RAT LIVER S-9, PHENOBARBITAL AND BETA-NAPHTHOFLAVONE, Method: PREINCUBATION inactive; negative | [3] inactive; negative | Test System: AMES SALMONELLA TYPHIMURIUM, Strain/Indicator: TA1535, Metabolic Activation: RAT LIVER S-9, PHENOBARBITAL AND BETA-NAPHTHOFLAVONE, Method: PREINCUBATION inactive; negative | [4] inactive; negative | Test System: AMES SALMONELLA TYPHIMURIUM, Strain/Indicator: TA1537, Metabolic Activation: RAT LIVER S-9, PHENOBARBITAL AND BETA-NAPHTHOFLAVONE, Method: PREINCUBATION inactive; negative | Test System: E.COLI, Strain/Indicator: WP2UVRA/PKM101, Metabolic Activation: NONE, Method: PREINCUBATION inactive; negative | Test System: E.COLI, Strain/Indicator: WP2UVRA/PKM101, Metabolic Activation: RAT LIVER S-9, PHENOBARBITAL AND BETA-NAPHTHOFLAVONE, Method: PREINCUBATION inactive; negative | Test System: E.COLI, Strain/Indicator: WP2UVRA, Metabolic Activation: NONE, Method: PREINCUBATION inactive; negative | Test System: E.COLI, Strain/Indicator: WP2UVRA, Metabolic Activation: RAT LIVER S-9, PHENOBARBITAL AND BETA-NAPHTHOFLAVONE, Method: PREINCUBATION inactive; negative
